Where two headings read alike, the source gives them in different places.

We go through 2 compounds from US20040006026A1, “Avilamycin derivatives” (Combinature Biopharm AG, priority 2001, published 2004).

One data set deals with Bacillus subtilis. The data set is described as follows: broth microdilution antimicrobial spectrum (NCCLS). It counts as cell-based. As for the experimental part: (§1) The antimicrobial spectrum of gavibamycin A3 was determined and compared with that of avilamycin A. In this context, the “broth microdilution” method in accordance with the regulations of the national committee for clinical laboratory standards (NCCLS) was used.

Data set [1] has as its system Enterococcus faecalis ATCC29212. The data set is described as follows: broth microdilution antimicrobial spectrum (NCCLS). It is filed as cell-based. The procedure: as §1
The subject of data set [2] is Enterococcus faecalis H-7-6. The data set is described as follows: broth microdilution antimicrobial spectrum (NCCLS). It counts as cell-based. The procedure: as §1
(In general: Broth dilution looks for growth in wells or tubes with falling amounts of substance.)

For data set [3], the system named is Staphylococcus aureus ATCC29213. The data set is described as follows: broth microdilution antimicrobial spectrum (NCCLS). It is filed as cell-based. The procedure:
as §1

For data set [4], the system named is Staphylococcus aureus ATCC6538P. The data set is described as follows: broth microdilution antimicrobial spectrum (NCCLS). It counts as cell-based. The procedure:
as §1

The subject of data set [5] is Staphylococcus aureus ATCC6538. The data set is described as follows: broth microdilution antimicrobial spectrum (NCCLS). It counts as cell-based. As for the experimental part: as §1
In data set [6] the test system is Staphylococcus aureus Q48-1.2.1. The data set is described as follows: broth microdilution antimicrobial spectrum (NCCLS). It counts as cell-based. As for the experimental part:
as §1

For data set [7], the system named is Streptococcus pneumoniae ATCC49619. The data set is described as follows: broth microdilution antimicrobial spectrum (NCCLS). It is filed as cell-based. The procedure:
as §1

The subject of data set [8] is multiresistant Staphylococcus aureus strains. Particulars: Zähner, 1999; cited from earlier work.
For data set [9], the system named is various Staphylococcus aureus strains. The data set is described as follows: preliminary tests / first MIC experiments. It is filed as cell-based. The procedure:
as §1
(§2) Furthermore, gavibamycin A3 was tested with regard to its antibiotic effect. […] The non-chlorinated gavibamycin derivatives also have antibiotic activity.

Data set [10] is described as follows: hydrophilia from Rf values / retention factors of TLC and HPLC analysis. It counts as physicochemical. As for the experimental part: TLC analysis: Streptomyces viridochromogenes Tü57 and the mutants GW-4 and GW4-AM1 were incubated for three days. The cultures were filtered off, and the filtrate was applied to a solid-phase extraction cartridge (SepPakC18, Waters). The cartridge was eluted with a gradient between 10% and 100% methanol in water. Avilamycin derivatives eluted with the fraction that contains 60-70% methanol. After extraction with ethyl acetate and withdrawal of the solvent, the avilamycin derivatives were dissolved in methanol once again and measured by means of TLC on silica gel plates (silica gel 60 F254, Merck), with methylene chloride/methanol (9:1, v/v) as the solvent. Avilamycin derivatives had been detected after treatment with anisaldehyde/H2SO4.
An analytical HPLC-UV was carried out on a Hewlett Packard 1090 Liquid Chromatograph with a photodiode array detector and a HP-ODS-Hypersil 5 μm, 200×2 mm column. The sequence of the solutions was as follows: Solution A, 0.04M (NH4)2HPO4 pH 7.0 buffer; Solution B, 100% methanol; a non-linear gradient, with 30-62% of Solution B distributed over a period of 25 min at a flow rate of 0.2 mL/min.
as §2

Data set [11] can be described thus: parenteral administration to a patient, tolerance. It counts as in vivo. As for the experimental part: 5 g gavibamycin A3 are dissolved in 1 l water for injection purposes, if necessary using a pharmaceutically well tolerated solubility enhancer, at room temperature, and subsequently adjusted to isotonic conditions for injection purposes by adding water-free glucose.
In an average patient, with a body weight of approximately 65 kg, 0.5 mL of this solution is administered, in other words 2.5 mg or approximately […].

Turning to `COC[C@H]1O[C@@H](OC2OC[C@@H]3O[C@]4(O[C@H]3[C@H]2OC(=O)C(C)C)O[C@H](C)[C@@](O)(C(C)=O)[C@@H]2OCO[C@H]24)[C@@H](OC)[C@@H](O)[C@@H]1O[C@@H]1O[C@H](C)[C@H](OC)[C@H](O[C@H]2C[C@@]3(C)OC4(C[C@@H](O)[C@H](O[C@H]5C[C@@H](O)[C@H](OC(=O)c6c(C)c(Cl)c(O)c(Cl)c6OC)[C@@H](C)O5)[C@@H](C)O4)O[C@@H]3[C@@H](C)O2)[C@H]1O` (some centres unmarked) [avilamycin A, reference compound], the antibiotic activity entry (in the data set with Bacillus subtilis; in data set [1]; in data set [2]; in data set [3]; in data set [4]; in data set [5]) was “demonstrate antibiotic activity” each time. The antibiotic activity entry in [6] and in data set [7] was “demonstrate antibiotic activity” in each case. In data set [8], the “activity against multiresistant Staphylococcus aureus strains” value is “excellent activity”.

With `COCC1OC(OC2OCC3OC4(OC3C2OC(=O)C(C)C)OC(C)C(O)(C(C)O)C2OCOC24)C(OC)C(O)C1OC1OC(C)C(OC)C(OC2CC3(C)OC4(CC(O)C(OC5CC(O)C(OC(=O)c6c(C)c(Cl)c(O)c(Cl)c6O)C(C)O5)C(C)O4)OC3C(C)O2)C1O` (centres unmarked) [gavibamycin A3], the antibiotic activity result (in the data set with Bacillus subtilis; in data set [1]; in data set [2]; in data set [3]; in data set [4]; in data set [5]) was “demonstrate antibiotic activity” throughout. Moreover, the antibiotic activity entry in data set [6] and in data set [7] was “demonstrate antibiotic activity” each time. Further, the “activity against various Staphylococcus aureus strains compared with avilamycin A” value in data set [9] is “somewhat stronger activity”; in data set [9] (listed as gavibamycin) it was “somewhat more active than avilamycin A”. For the same compound, the entries for the “hydrophilia compared with avilamycin A” value in [10] and in data set [10] (listed as gavibamycin) were “somewhat more hydrophilic than avilamycin A” and “much more hydrophilic”, respectively. Also, the “tolerance of higher dosage” value in data set [11] (human, in vivo) was “toxicologically unproblematic and was well tolerated”. The “tolerance of the administered dose” value in data set [11] (patient approx. 65 kg, 0.5 mL of 5 g/l solution, 2.5 mg, parenteral) was “well tolerated by the patient”.
